Data from US8815872B2, “Macrocyclics pyrimidines as aurora kinase inhibitors” (Merck Patent GmbH, priority 2008, dated 2014).

Tests used:
Assay type in all cases: biochemical
EGFR(h) = molecular target: T1, EGFR(h) (Homo sapiens, UniProt P00533); assay: Other kinases, single-concentration inhibition (Table 3)
T1 construct: purchased Caliper Life Sciences
Outline: (§1)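 Compound inhibition at one concentration was assessed by monitoring peptide phosphorylation via charge-based separation of fluorescent substrate and product. Incubation lasted 90 min at 25 °C before EDTA stop. Values are percent inhibition relative to no-inhibitor and no-ATP wells.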

Flt3(h) = molecular target: T2, Flt3(h) (Homo sapiens, UniProt P36888); assay: as above
T2 construct: purchased Caliper Life Sciences
T2 sequence (P36888 27-993): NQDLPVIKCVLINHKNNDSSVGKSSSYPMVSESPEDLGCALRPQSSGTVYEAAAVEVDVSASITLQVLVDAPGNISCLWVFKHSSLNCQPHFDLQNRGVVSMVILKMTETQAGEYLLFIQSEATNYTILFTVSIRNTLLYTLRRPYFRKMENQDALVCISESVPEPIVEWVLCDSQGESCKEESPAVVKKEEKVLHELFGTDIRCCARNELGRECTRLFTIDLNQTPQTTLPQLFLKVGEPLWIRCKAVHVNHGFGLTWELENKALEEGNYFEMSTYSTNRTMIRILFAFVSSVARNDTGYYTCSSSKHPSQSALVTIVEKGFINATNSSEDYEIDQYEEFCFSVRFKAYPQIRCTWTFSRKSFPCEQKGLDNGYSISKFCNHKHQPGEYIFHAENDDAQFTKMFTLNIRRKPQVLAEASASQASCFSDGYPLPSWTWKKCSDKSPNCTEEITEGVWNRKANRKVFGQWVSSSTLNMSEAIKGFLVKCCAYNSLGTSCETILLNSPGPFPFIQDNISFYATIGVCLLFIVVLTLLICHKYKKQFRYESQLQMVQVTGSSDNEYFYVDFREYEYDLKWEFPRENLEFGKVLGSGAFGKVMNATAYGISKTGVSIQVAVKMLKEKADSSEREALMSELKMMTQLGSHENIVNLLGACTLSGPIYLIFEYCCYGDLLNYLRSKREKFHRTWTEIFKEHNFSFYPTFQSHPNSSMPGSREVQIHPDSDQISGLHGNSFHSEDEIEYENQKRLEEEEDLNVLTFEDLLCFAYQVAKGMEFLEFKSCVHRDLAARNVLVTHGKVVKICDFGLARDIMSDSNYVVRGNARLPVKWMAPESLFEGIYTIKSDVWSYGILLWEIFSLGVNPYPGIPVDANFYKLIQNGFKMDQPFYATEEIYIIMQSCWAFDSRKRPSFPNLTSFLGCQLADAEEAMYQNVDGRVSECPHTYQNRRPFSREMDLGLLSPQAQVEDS
Outline: as §1

cKit(D816V)(h) = molecular target: T3, cKit(D816V)(h) (Homo sapiens, UniProt P10721, D816V); assay: as above
T3 construct: purchased Caliper Life Sciences
Outline: as §1

FAK(h) = molecular target: T4, FAK(h) (Homo sapiens, UniProt Q05397); assay: as above
T4 construct: purchased Caliper Life Sciences
Outline: as §1

ALK(h) = molecular target: T5, ALK(h) (Homo sapiens, UniProt Q9UM73); assay: as above
T5 construct: purchased Caliper Life Sciences
Outline: as §1

KDR(h) = molecular target: T6, KDR(h) (Homo sapiens, UniProt P35968); assay: as above
T6 construct: purchased Caliper Life Sciences
Outline: as §1

AMPK = assay: Other kinases, inhibition at 1 μM (Table 3)
Protocol: (§2) The Aurora and other kinase assays described here were performed on two Caliper Life Sciences systems, the LC3000 and the Desktop Profiler. These provide data on enzyme activity via measurement of the relative amounts of phosphorylated or unphosphorylated fluorescently labelled substrate peptide at the end of an enzymatic reaction. These different states of peptide are resolved by applying a potential difference across the sample. The presence of a charged phosphate group on the product (as opposed to the substrate) causes a different peptide mobility between the two peptides. This is visualized by excitation of a fluorescent label on the substrate and product peptides and represented as peaks within the analysis software.
(§3) The Desktop Profiler utilizes the same principal as the LC 3000 for calculating percentage conversion of a substrate to product. Caliper Life Sciences provided proprietary flash frozen pre-made 384 well plates containing selected kinases. Each column in the 384 well plate contained a particular selected kinase. A second plate, the ‘substrate plate’ contained a mix of fluorescently labeled peptide substrate and ATP. These were arranged in columns so that transfer for substrate plate to enzyme plate provided the correct enzyme with the correct substrate/ATP concentration.
(§4) Compounds were added to a thawed enzyme plate in the desired format, in single concentrations. Reactions were initiated by transfer of the ubstrate/ATP mix from the substrate plate. The enzyme plate was incubated for 90 mins at 25 °C. The reaction was stopped by addition of […] of Stop Buffer (100 mM HEPES pH 7.5, 0.015% Brij-35, 10 mM EDTA (Sigma, E7889)).
(§5) Plates were read in a manner identical to that of the LC3000, and the ratio between substrate and product peaks provided the activity of the enzyme in that well. This was best represented by a plate heat map which colors each well by percent inhibition as compared to positive and negative controls (no inhibitors and no ATP respectively).

MKK1 = molecular target: T7, MKK1 (Homo sapiens, UniProt Q02750); assay: Other kinases, inhibition at 1 μM (Table 3)
T7 construct: purchased Caliper Life Sciences
Protocol: as §2, §3, §4, §5

PAK5 = molecular target: T8, PAK5 (Homo sapiens, UniProt Q9P286); assay: Other kinases, inhibition at 1 μM (Table 3)
T8 construct: purchased Caliper Life Sciences
Protocol: as §2, §3, §4, §5

PKD2 = molecular target: T9, PKD2 (Homo sapiens, UniProt Q9BZL6); assay: Other kinases, inhibition at 1 μM (Table 3)
T9 construct: purchased Caliper Life Sciences
Protocol: as §2, §3, §4, §5

GSK3-beta = molecular target: T10, GSK3-beta (Homo sapiens, UniProt P49841); assay: Other kinases, inhibition at 1 μM (Table 3)
T10 construct: purchased Caliper Life Sciences
Protocol: as §2, §3, §4, §5

JNK1-alpha-1 = molecular target: T11, JNK1-alpha-1 (Homo sapiens, UniProt P45983); assay: Other kinases, inhibition at 1 μM (Table 3)
T11 construct: purchased Caliper Life Sciences
Protocol: as §2, §3, §4, §5

Tie2(h) = molecular target: T12, Tie2(h) (Homo sapiens, UniProt Q02763); assay: Inhibition of other kinases IC50 (Table 2)
T12 construct: purchased Caliper Life Sciences
Protocol: as §2

IRAK4(h) = molecular target: T13, IRAK4(h) (Homo sapiens, UniProt Q9NWZ3); assay: Inhibition of other kinases IC50 (Table 2)
T13 construct: purchased Caliper Life Sciences
T13 sequence (Q9NWZ3 1-460): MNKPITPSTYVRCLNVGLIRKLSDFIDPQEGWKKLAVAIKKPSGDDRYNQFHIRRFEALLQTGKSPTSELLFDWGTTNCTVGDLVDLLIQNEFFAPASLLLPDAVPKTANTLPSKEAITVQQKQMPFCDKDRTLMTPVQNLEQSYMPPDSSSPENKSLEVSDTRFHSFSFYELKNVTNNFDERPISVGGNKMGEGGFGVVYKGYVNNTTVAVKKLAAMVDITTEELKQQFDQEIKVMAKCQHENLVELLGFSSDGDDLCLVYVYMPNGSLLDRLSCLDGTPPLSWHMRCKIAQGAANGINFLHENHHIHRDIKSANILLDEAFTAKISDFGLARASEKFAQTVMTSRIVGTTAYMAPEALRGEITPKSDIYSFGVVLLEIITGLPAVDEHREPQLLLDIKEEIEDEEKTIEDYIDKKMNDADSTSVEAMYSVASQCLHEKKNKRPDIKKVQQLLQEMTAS
Protocol: as §2

Ret(h) = molecular target: T14, Ret(h) (Homo sapiens, UniProt P07949); assay: Inhibition of other kinases IC50 (Table 2)
T14 construct: purchased Caliper Life Sciences
Protocol: as §2

T5 sequence (Q9UM73 19-1620): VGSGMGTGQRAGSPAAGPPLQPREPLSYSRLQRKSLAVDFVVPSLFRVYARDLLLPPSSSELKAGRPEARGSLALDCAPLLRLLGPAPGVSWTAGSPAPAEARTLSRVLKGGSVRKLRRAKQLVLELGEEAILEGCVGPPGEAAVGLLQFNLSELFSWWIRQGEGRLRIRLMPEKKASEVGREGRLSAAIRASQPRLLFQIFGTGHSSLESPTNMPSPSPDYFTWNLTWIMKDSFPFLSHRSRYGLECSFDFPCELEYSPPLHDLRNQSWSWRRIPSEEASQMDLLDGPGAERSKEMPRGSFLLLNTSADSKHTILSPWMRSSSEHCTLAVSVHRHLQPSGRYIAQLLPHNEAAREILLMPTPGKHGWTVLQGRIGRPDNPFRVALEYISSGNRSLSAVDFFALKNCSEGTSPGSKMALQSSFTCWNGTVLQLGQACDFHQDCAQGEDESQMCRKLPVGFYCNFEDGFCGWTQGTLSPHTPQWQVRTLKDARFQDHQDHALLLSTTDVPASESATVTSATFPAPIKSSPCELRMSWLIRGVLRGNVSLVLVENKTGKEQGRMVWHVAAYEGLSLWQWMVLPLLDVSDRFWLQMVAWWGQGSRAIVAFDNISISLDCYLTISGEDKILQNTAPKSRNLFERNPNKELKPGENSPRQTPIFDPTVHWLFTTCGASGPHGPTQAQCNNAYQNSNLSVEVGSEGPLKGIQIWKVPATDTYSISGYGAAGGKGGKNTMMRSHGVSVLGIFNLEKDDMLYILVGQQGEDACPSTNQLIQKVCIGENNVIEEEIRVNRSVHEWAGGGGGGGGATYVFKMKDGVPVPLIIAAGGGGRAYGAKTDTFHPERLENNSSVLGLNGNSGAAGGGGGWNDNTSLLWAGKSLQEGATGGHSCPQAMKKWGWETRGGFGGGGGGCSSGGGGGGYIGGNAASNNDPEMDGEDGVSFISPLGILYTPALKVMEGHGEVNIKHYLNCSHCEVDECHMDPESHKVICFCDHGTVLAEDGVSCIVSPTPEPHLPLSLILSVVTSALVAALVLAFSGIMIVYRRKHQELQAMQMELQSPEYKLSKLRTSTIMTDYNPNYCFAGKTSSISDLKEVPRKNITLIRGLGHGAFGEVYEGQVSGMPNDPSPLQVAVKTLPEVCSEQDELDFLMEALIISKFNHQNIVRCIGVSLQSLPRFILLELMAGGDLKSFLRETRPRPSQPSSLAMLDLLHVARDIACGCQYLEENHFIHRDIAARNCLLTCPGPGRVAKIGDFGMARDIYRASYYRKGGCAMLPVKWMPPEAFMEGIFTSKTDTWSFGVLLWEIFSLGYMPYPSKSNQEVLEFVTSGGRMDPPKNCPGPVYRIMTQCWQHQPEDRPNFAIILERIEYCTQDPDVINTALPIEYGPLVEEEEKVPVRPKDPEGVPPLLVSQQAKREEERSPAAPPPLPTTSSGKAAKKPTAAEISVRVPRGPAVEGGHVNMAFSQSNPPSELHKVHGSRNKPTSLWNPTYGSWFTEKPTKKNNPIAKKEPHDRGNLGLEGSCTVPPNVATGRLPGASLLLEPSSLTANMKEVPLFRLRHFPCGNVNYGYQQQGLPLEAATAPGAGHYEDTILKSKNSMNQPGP
T3 sequence (P10721 26-976 D816V): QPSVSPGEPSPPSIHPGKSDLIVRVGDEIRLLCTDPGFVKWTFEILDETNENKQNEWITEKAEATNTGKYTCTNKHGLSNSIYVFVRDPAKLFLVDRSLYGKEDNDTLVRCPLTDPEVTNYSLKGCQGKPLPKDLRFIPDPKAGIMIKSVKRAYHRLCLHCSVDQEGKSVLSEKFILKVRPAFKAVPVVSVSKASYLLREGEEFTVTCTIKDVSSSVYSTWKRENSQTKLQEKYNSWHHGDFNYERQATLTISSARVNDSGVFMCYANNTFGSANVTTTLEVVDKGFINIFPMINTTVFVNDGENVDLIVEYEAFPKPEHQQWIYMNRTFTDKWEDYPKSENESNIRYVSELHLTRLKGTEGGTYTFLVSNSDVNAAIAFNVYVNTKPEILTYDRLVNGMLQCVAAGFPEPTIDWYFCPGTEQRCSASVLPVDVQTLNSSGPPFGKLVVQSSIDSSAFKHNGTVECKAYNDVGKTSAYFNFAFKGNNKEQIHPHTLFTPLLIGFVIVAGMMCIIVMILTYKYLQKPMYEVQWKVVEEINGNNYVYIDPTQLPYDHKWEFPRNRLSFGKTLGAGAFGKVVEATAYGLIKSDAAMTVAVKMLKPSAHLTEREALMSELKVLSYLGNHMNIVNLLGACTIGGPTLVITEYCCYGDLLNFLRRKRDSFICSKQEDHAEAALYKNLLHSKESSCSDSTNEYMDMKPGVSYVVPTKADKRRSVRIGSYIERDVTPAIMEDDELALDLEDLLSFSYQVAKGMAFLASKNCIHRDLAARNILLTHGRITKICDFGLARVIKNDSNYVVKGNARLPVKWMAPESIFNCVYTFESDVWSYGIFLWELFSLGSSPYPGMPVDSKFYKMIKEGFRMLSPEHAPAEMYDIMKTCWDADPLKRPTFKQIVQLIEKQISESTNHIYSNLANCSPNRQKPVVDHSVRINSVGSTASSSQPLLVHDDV
T6 sequence (P35968 20-1356): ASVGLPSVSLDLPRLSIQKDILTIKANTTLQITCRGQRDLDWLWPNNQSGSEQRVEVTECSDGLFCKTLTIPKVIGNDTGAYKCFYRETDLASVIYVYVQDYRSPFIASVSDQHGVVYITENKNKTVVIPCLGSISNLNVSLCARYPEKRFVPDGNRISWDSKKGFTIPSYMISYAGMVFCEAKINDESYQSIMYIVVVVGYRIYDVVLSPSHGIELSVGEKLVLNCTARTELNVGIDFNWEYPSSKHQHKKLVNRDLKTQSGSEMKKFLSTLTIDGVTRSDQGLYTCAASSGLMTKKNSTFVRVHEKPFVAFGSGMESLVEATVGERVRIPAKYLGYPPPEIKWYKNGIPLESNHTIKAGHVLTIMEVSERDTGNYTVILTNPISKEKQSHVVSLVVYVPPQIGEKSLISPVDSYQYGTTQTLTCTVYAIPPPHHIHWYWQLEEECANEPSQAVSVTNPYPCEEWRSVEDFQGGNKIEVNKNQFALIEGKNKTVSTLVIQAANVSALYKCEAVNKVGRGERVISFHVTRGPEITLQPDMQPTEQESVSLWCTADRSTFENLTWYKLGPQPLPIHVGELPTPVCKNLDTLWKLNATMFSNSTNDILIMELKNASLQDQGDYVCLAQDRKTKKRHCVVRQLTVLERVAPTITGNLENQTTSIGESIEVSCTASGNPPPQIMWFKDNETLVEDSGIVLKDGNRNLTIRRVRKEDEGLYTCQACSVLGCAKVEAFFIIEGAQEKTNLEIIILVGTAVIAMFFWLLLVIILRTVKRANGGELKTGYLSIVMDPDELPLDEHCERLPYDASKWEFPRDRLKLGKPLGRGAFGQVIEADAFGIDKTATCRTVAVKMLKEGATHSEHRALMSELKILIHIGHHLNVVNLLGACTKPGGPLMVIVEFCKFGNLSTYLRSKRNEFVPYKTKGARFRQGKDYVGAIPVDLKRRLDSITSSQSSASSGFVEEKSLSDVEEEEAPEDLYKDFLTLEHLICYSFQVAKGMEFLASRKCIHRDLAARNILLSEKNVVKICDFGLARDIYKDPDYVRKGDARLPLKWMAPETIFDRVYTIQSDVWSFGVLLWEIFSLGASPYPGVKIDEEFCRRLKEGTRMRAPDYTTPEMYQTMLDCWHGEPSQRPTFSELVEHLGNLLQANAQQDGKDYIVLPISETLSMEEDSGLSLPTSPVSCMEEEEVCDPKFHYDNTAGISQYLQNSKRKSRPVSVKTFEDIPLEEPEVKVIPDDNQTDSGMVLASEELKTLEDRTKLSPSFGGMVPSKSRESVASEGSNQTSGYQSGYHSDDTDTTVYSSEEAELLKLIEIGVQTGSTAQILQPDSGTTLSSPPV
T4 sequence (Q05397 whole entry): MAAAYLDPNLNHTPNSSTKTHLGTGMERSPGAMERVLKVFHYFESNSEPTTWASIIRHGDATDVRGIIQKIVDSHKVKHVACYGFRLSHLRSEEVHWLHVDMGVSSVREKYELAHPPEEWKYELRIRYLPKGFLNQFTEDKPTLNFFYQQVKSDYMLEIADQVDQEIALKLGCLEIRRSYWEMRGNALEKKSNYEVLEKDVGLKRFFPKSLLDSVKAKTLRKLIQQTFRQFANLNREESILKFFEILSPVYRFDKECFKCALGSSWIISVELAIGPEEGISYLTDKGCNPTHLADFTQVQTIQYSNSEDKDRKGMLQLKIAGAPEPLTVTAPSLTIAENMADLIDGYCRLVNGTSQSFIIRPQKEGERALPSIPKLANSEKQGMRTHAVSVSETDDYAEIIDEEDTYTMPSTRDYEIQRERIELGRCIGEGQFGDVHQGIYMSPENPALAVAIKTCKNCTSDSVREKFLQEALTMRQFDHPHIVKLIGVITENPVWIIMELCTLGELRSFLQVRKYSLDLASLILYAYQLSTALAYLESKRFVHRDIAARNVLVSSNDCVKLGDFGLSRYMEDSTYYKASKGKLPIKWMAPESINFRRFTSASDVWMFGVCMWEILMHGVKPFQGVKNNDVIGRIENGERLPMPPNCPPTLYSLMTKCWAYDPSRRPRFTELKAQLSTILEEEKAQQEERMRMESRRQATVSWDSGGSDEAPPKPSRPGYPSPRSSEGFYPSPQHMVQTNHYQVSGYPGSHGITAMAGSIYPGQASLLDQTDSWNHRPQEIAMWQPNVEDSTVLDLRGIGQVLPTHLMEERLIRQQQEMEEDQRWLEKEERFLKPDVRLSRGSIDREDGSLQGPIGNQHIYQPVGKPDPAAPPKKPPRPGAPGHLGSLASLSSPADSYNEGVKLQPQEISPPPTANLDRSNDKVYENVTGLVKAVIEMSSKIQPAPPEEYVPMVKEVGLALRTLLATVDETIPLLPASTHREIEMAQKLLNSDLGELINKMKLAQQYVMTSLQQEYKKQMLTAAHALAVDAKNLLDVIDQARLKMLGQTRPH

| % inhibition EGFR(h) (EGFR(h); 1 μM) | % inhibition Flt3(h) (Flt3(h); 1 μM) | % inhibition cKit(D816V)(h) (cKit(D816V)(h); 1 μM) | % inhibition FAK(h) (FAK(h); 1 μM) | % inhibition ALK(h) (ALK(h); 1 μM) | % inhibition KDR(h) (KDR(h); 1 μM) | SMILES | further results |
| --- | --- | --- | --- | --- | --- | --- | --- |
| 63% | 117% | 103% | 91% | 97% | 70% | CC[C@@H]1C[C@@H]2CCCOc3cccc(c3)Nc3ncc(F)c(n3)N[C@H]2[C@H]1C(N)=O (single isomer, unassigned) [Example 5] |  |
| −2% | 21% | 97% | 30% | 32% | 8% | CN1CCN(c2ccc3cc2NC(=O)CS[C@@H]2C[C@@H]4C[C@H]2[C@@H](Nc2nc(ncc2F)N3)[C@H]4C(N)=O)CC1 [Example 24] |  |
|  |  |  |  |  |  | O=C(O)[C@H]1[C@H]2C[C@H]3[C@H]1Nc1nc(ncc1F)Nc1cccc(c1)OCCS[C@@H]3C2 [Example 21] | % inhibition EGFR(h) (EGFR(h); 10 μM): 49%; % inhibition Flt3(h) (Flt3(h); 10 μM): 2%; % inhibition cKit(D816V)(h) (cKit(D816V)(h); 10 μM): 104%; % inhibition FAK(h) (FAK(h); 10 μM): 7%; % inhibition ALK(h) (ALK(h); 10 μM): 57%; % inhibition KDR(h) (KDR(h); 10 μM): 10% |
| 57% | 93% | 112% | 35% | 88% | 8% | N#Cc1ccc2cc1NC(=O)CS[C@@H]1C[C@@H]3C[C@H]1[C@@H](Nc1nc(ncc1F)N2)[C@H]3C(N)=O [Example 26] |  |
|  |  |  |  |  |  | Fc1cnc2nc1NC1CCCC(C1)OC/C=C\COc1cccc(c1)N2 (single isomer, unassigned) [Example 33, (16Z)-6-fluoro-14,19-dioxa-2,4,8,26-tetraazatetracyclo[18.3.1.1˜3,7˜0.1˜9,13˜]hexacosa-1(24),3(26),4,6,16,20,22-heptaene] | % inhibition AMPK (AMPK): 76%; % inhibition MKK1 (MKK1): 71%; % inhibition PAK5 (PAK5): 92%; % inhibition PKD2 (PKD2): 78%; inhibition at 1 µM (GSK3-beta): 57%; inhibition at 1 µM (JNK1-alpha-1): 75% |
| 48% | 24% | 112% | 30% | 59% | 41% | CN1CCN(c2ccc3cc2OCCS[C@@H]2C[C@@H]4C[C@H]2[C@@H](Nc2nc(ncc2F)N3)[C@H]4C(N)=O)CC1 [Example 22] |  |
| 113% | 102% | 102% | 77% | 81% | 101% | NC(=O)[C@H]1[C@H]2C[C@H]3[C@H]1Nc1nc(ncc1F)Nc1cccc(c1)C(=O)CS[C@@H]3C2 [Example 11] |  |
| 34% | 66% | 95% | 41% | 77% | 7% | NC(=O)[C@H]1[C@H]2C[C@H]3[C@H]1Nc1nc(ncc1F)Nc1cccc(c1)NC(=O)CS[C@@H]3C2 [Example 27] | IC50 (Tie2(h)): 101 to 1000 nM; IC50 (IRAK4(h)): 1 to 100 nM; IC50 (Ret(h)): 1 to 100 nM |
| 120% | 98% | 77% | 86% | 86% | 95% | C=C[C@@H]1C[C@@H]2/C=C/COc3cccc(c3)Nc3ncc(F)c(n3)N[C@H]2[C@H]1C(N)=O (single isomer, unassigned) [Example 3] |  |
| 67% | 16% | 112% | 11% | 60% | 8% | NC(=O)[C@H]1[C@H]2C[C@H]3[C@H]1Nc1nc(ncc1F)Nc1cccc(c1)OCCS[C@@H]3C2 [Example 20] | IC50 (Tie2(h)): 101 to 1000 nM; IC50 (IRAK4(h)): 101 to 1000 nM; IC50 (Ret(h)): 101 to 1000 nM |
| 67% | 116% | 96% | 81% | 101% | 62% | CC[C@@H]1C[C@@H]2/C=C\COc3cccc(c3)Nc3ncc(F)c(n3)N[C@H]2[C@H]1C(N)=O (single isomer, unassigned) [Example 6] |  |

| SMILES | % inhibition EGFR(h) (EGFR(h); 1 μM) | % inhibition Flt3(h) (Flt3(h); 1 μM) | % inhibition cKit(D816V)(h) (cKit(D816V)(h); 1 μM) | % inhibition FAK(h) (FAK(h); 1 μM) | % inhibition ALK(h) (ALK(h); 1 μM) | % inhibition KDR(h) (KDR(h); 1 μM) | further results |
| --- | --- | --- | --- | --- | --- | --- | --- |
| NC(=O)[C@H]1[C@H]2C[C@H]3[C@H]1Nc1nc(ncc1F)Nc1cccc(c1)CSS[C@@H]3C2 [Example 10] | 53% | 65% | 96% | 3% | 8% | 32% | % inhibition AMPK (AMPK): 38%; % inhibition MKK1 (MKK1): 13%; % inhibition PAK5 (PAK5): 72%; % inhibition PKD2 (PKD2): 73%; inhibition at 1 µM (GSK3-beta): 19%; inhibition at 1 µM (JNK1-alpha-1): 14% |
